Assays:
[1] = system: TNFα; assay: TNFα levels in LPS-activated primary microglia cells treated with amino acid combinations; format: cell-based, mouse; settings: for TNFα Measurements, Mean: mouse microglia supernatant, 12 h after LPS 100 ng/ml, LIV 2.5 mM, NAC, ALCAR, CR 1 mM each, 6 replicates
Protocol: (§1) Pups were decapitated, brains removed from the skulls, cortices dissected and collected in Calcium and Magnesium free Hanks Balanced Salt Solution (CMF-HBSS) on ice. Cortices were chopped with a sterile razor blade in chop solution (CMF-HBSS) and digested in 2 ml digestion solution (0.25% trypsin in CMF-HBSS) in a 15 ml sterile plastic tube for 20 minutes at 37° C. in a water bath. After removing as much as possible of the digestion solution (approximately 1 ml), the digestion was stopped by adding 3 ml stop solution (0.01% DNaseI and 0.5% trypsin inhibitor in FCS). Cortices were triturated 10-15 times with a fire-polished Pasteur pipette and centrifuged at 300 g for 5 minutes. The pellet was resuspended in 1 ml nutrition medium (10% FCS, 1% Penicillin-Streptomycin, 2 mM L-glutamine in DMEM) per pup. Cells were seeded into poly-D-lysine pre-coated T75 flasks containing 14 ml nutrition medium (one pup per flask). Medium was changed every 3 to 4 days and cells were cultured at 37° C., 95% humidity and 5% CO2 for approximately 14 days before harvesting the microglia.
(§2) After approximately 14 days of cultivation microglia cells were harvested by shaking the T75 flasks at 200 rpm at 37° C. for 2 h. After visual inspection confirming that the microglia cells had detached, the supernatants containing the microglia were transferred to 50 ml tubes (supernatant from 1 flask into 1 tube) and centrifuged at 300 g for 10 minutes. The pelleted microglia cells were resuspended in 2 ml of nutrition medium. Microglia cells were seeded into uncoated plates 1×10^5 cells/well (96 well plate) and incubated for 2 h at 37° C. Then the plates were rocked at 100 rpm for 5 minutes to detach the oligodendrocytes. The medium containing the oligodendrocytes was exchanged with fresh medium and microglia cells were incubated for 2 days at 37° C. before LPS treatment. 24 h before LPS stimulation single amino acids and combinations were administered. Next, 1 h before LPS stimulation, medium was changed to treatment medium (DMEM, 5% FBS, 2 mM L-glutamine) containing amino acids or combinations. Cells were maintained in treatment medium for the remaining culture period. One hour after changing cells to treatment medium, cells were stimulated with LPS (100 ng/ml) for 12 h in total. Cells treated with vehicle, LPS alone served as controls.
(§3) After 12 h of LPS stimulation, cell supernatants were collected and cytokines IL-6 and TNFα were measured. […]
(§4) Levels of TNFα an IL-6 were measured in supernatants of primary microglia cells collected 12 h after LPS stimulation. Cytokines were measured by an immunosorbent assay (U-PLEX Custom Mouse Cytokine, Mesoscale Discovery) according to the instructions of the manufacturer and evaluated in comparison to calibration curves provided in the kit. […]

[2] = system: IL-6; assay: IL-6 levels in LPS-activated primary microglia cells treated with amino acid combinations; format: cell-based, mouse; settings: for IL-6 Measurements, Mean: mouse microglia supernatant, 12 h after LPS 100 ng/ml, LIV 2.5 mM, NAC, ALCAR, CR 1 mM each, 6 replicates
Protocol: as §1, §2, §3, §4

[3] = mouse microglia activated with LPS

| Structure (SMILES) | TNFα Measurements, Mean [1] [pg per ml] | IL-6 Measurements, Mean [2] [pg per ml] | TNFα protein level compared to vehicle treated with LPS stimulus [1, 3] | IL-6 protein level compared to vehicle treated with LPS stimulus [2, 3] |
| --- | --- | --- | --- | --- |
| CC(=O)O[C@H](CC(=O)[O-])C[N+](C)(C)C [ALCAR, acetyl-1-carnitine] | 21897 | 59600 |  |  |
| CC(=O)N[C@@H](CS)C(=O)O [NAC, N-acetylcysteine] | 14814 | 46749 | reduced | reduced |
| CN(CC(=O)O)C(=N)N [CR, creatine] | 17884 | 56492 |  |  |

Source: patent US20190046486A1, “COMPOSITIONS AND METHODS FOR THE TREATMENT OF NEURONAL INJURY” (AXCELLA HEALTH INC., priority 2017, published 2019)
